In PubChem BioAssay (NCI):
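GI50 marks 50% less growth. TGI is the concentration that stops growth completely.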

Columns and labels:
Assay in all cases: growth of human tumour cells (NCI), 384-well format
[1] = tested on: SK-OV-3 ovarian
[2] = tested on: IGROV1 ovarian
[3] = tested on: A549 NSCLC
[4] = tested on: KM12 colon
[5] = tested on: HCT-15 colon
[6] = tested on: CAKI-1 renal
[7] = tested on: MALME-3M melanoma
[8] = tested on: PC-3 prostate
[9] = tested on: UO-31 renal
[10] = tested on: SF-268 CNS
[11] = tested on: EKVX NSCLC
[12] = tested on: RXF 393 renal
[13] = tested on: SN12C renal
[14] = tested on: NCI/ADR-RES ovarian
[15] = tested on: T-47D breast
[16] = tested on: SNB-19 CNS
[17] = tested on: TK-10 renal
[18] = tested on: LOX IMVI melanoma
[19] = tested on: NCI-H226 lung
[20] = tested on: UACC-257 melanoma
[21] = tested on: NCI-H322M lung
[22] = tested on: OVCAR-5 ovarian
[23] = tested on: OVCAR-4 ovarian
[24] = tested on: HOP-92 NSCLC
[25] = tested on: HOP-62 NSCLC
[26] = tested on: A498 renal
[27] = tested on: NCI-H23 lung
[28] = tested on: ACHN renal
[29] = tested on: MCF7 breast
[30] = tested on: RPMI-8226 leukemia
[31] = tested on: DU-145 prostate
[32] = tested on: COLO 205 colon
[33] = tested on: HCC-2998 colon
[34] = tested on: HL-60(TB) leukemia
[35] = tested on: HS 578T breast
[36] = tested on: SF-295 CNS
[37] = tested on: SNB-75 CNS
[38] = tested on: M14 melanoma
[39] = tested on: HT29 colon
[40] = tested on: NCI-H522 lung
[41] = tested on: MDA-MB-435 melanoma
[42] = tested on: SW-620 colon
[43] = tested on: SK-MEL-28 melanoma
[44] = tested on: OVCAR-8 ovarian
[45] = tested on: NCI-H460 NSCLC
[46] = tested on: SF-539 CNS
[47] = tested on: SR leukemia
[48] = tested on: UACC-62 melanoma
[49] = tested on: MDA-MB-231 breast
[50] = tested on: SK-MEL-5 melanoma
[51] = tested on: U251 glioblastoma
[52] = tested on: CCRF-CEM leukemia
[53] = tested on: MOLT-4 leukemia
[54] = tested on: BT-549 breast
[55] = tested on: MDA-MB-468 breast
[56] = tested on: 786-0 renal
[57] = tested on: OVCAR-3 ovarian
[58] = tested on: SK-MEL-2 melanoma
[59] = tested on: HCT-116 colon
[60] = tested on: K-562 leukemia

## CC(=O)O[C@@]12CO[C@@H]1C[C@H](O)[C@@]1(C)C(=O)[C@H](O)C3=C(C)[C@@H](OC(=O)[C@H](O)[C@@H](NC(=O)OC(C)(C)C)c4ccccc4)C[C@@](O)([C@@H](OC(=O)c4ccccc4)[C@H]21)C3(C)C
[1]
  TGI: > 100 µM
[2]
  TGI: 27.8 µM
[3]
  TGI: 29.1 µM
[4]
  TGI: 24 µM
[5]
  GI50: < 0.0151 µM
  TGI: 1.79 µM
[6]
  TGI: 18 µM
[7]
  GI50: 12 µM
  TGI: 24.8 µM
[8]
  TGI: 37.5 µM
[9]
  GI50: 0.0791 µM
  TGI: 51.8 µM
[10]
  TGI: 36.1 µM
[11]
  TGI: 35.8 µM
[12]
  TGI: < 0.0108 µM
[13]
  TGI: 21.2 µM
[14]
  GI50: 0.782 µM
  TGI: 2.26 µM
[15]
  TGI: > 100 µM
[16]
  TGI: > 70.7 µM
[17]
  GI50: < 0.0143 µM
  TGI: > 47.4 µM
[18]
  TGI: 17.4 µM
[19]
  TGI: 22.5 µM
[20]
  TGI: 31.6 µM
[21]
  TGI: 31.3 µM
[22]
  TGI: 36.3 µM
[23]
  TGI: 39.9 µM
[24]
  TGI: 33.2 µM
[25]
  TGI: 17.3 µM
[26]
  TGI: 18.7 µM
[27]
  TGI: 27.3 µM
[28]
  GI50: 0.0201 µM
  TGI: 20.9 µM
[29]
  TGI: 24.7 µM

## C/C=C/C/C=C/CCC(=O)[C@H]1O[C@H]1C(N)=O
[30]
  GI50: 2.82 µM
  TGI: 6.86 µM
[1]
  GI50: 16.7 µM
  TGI: 33.2 µM
[31]
  GI50: 12.7 µM
  TGI: 25.4 µM
[32]
  GI50: 21 µM
  TGI: 35.4 µM
[2]
  GI50: 14.6 µM
  TGI: 28.8 µM
[33]
  GI50: 12.7 µM
  TGI: 25.3 µM
[3]
  GI50: 16.6 µM
  TGI: 30.4 µM
[4]
  GI50: 13 µM
  TGI: 26.1 µM
[5]
  GI50: 6.61 µM
  TGI: 19.6 µM
[6]
  GI50: 14 µM
  TGI: 27 µM
[7]
  GI50: 12.7 µM
  TGI: 25.3 µM
[8]
  GI50: 11.1 µM
  TGI: 23.4 µM
[34]
  GI50: 7.3 µM
  TGI: 19.3 µM
[35]
  GI50: 8.38 µM
  TGI: 21 µM
[36]
  GI50: 11.9 µM
  TGI: 24.6 µM
[37]
  GI50: 2.19 µM
  TGI: 7.15 µM
[38]
  GI50: 12.2 µM
  TGI: 25 µM
[39]
  GI50: 18.1 µM
  TGI: 32.7 µM
[10]
  GI50: 14.9 µM
  TGI: 30 µM
[40]
  GI50: 3.29 µM
  TGI: 11.3 µM
[41]
  GI50: 16 µM
  TGI: 30 µM
[11]
  GI50: 6.48 µM
  TGI: 18.9 µM
[42]
  GI50: 14 µM
  TGI: 27.3 µM
[12]
  GI50: 0.407 µM
  TGI: 3.86 µM
[13]
  GI50: 13.4 µM
  TGI: 26.4 µM
[43]
  GI50: 16.3 µM
  TGI: 30.2 µM
[14]
  GI50: 15.4 µM
  TGI: 31.1 µM
[15]
  GI50: 5.89 µM
  TGI: 17.6 µM
[44]
  GI50: 14.2 µM
  TGI: 27.7 µM
[16]
  GI50: 14.1 µM
  TGI: 28.2 µM
[17]
  GI50: 18.1 µM
  TGI: 32.1 µM
[45]
  GI50: 12.3 µM
  TGI: 25 µM
[46]
  GI50: 13.8 µM
  TGI: 27.5 µM
[47]
  GI50: 2.21 µM
  TGI: 4.91 µM
[48]
  GI50: 12.8 µM
  TGI: 27.1 µM
[49]
  GI50: 11.6 µM
  TGI: 24.5 µM
[50]
  GI50: 7.25 µM
  TGI: 19.8 µM
[51]
  GI50: 11.7 µM
  TGI: 24.7 µM
[19]
  GI50: 7.61 µM
  TGI: 19.7 µM
[20]
  GI50: 3.27 µM
  TGI: 9.64 µM
[21]
  GI50: 17.8 µM
  TGI: 31.9 µM
[22]
  GI50: 17.6 µM
  TGI: 33.2 µM
[23]
  GI50: 3.76 µM
  TGI: 15.6 µM
[52]
  GI50: 3.26 µM
  TGI: 11.3 µM
[53]
  GI50: 4.91 µM
  TGI: 16.9 µM
[24]
  GI50: 11.5 µM
  TGI: 23.9 µM
[54]
  GI50: 3.21 µM
  TGI: 12.8 µM
[55]
  GI50: 2.17 µM
  TGI: 4.86 µM
[25]
  GI50: 1.34 µM
  TGI: 5.19 µM
[26]
  GI50: 17.7 µM
  TGI: 31.7 µM
[56]
  GI50: 14.4 µM
  TGI: 28.2 µM
[27]
  GI50: 3.72 µM
  TGI: 12.7 µM
[28]
  GI50: 16.9 µM
  TGI: 30.7 µM
[29]
  GI50: 5.89 µM
  TGI: 18.4 µM
[57]
  GI50: 12.3 µM
  TGI: 24.8 µM
[58]
  GI50: 8.59 µM
  TGI: 20.3 µM

## COc1cc2cc(C(=O)CCC(=O)O)sc2cc1OC
[30]
  GI50: > 100 µM
  TGI: > 100 µM
[1]
  GI50: > 100 µM
  TGI: > 100 µM
[31]
  GI50: > 100 µM
  TGI: > 100 µM
[32]
  GI50: > 100 µM
  TGI: > 100 µM
[2]
  GI50: > 100 µM
  TGI: > 100 µM
[33]
  GI50: > 100 µM
  TGI: > 100 µM
[3]
  GI50: > 100 µM
  TGI: > 100 µM
[4]
  GI50: > 100 µM
  TGI: > 100 µM
[5]
  GI50: > 100 µM
  TGI: > 100 µM
[6]
  GI50: > 100 µM
  TGI: > 100 µM
[7]
  GI50: > 100 µM
  TGI: > 100 µM
[8]
  GI50: > 100 µM
  TGI: > 100 µM
[9]
  GI50: > 100 µM
  TGI: > 100 µM
[34]
  GI50: 22.7 µM
  TGI: 45.8 µM
[35]
  GI50: > 100 µM
  TGI: > 100 µM
[36]
  GI50: > 100 µM
  TGI: > 100 µM
[37]
  GI50: > 100 µM
  TGI: > 100 µM
[38]
  GI50: > 100 µM
  TGI: > 100 µM
[39]
  GI50: > 100 µM
  TGI: > 100 µM
[10]
  GI50: > 100 µM
  TGI: > 100 µM
[40]
  GI50: > 100 µM
  TGI: > 100 µM
[41]
  GI50: > 100 µM
  TGI: > 100 µM
[11]
  GI50: > 100 µM
  TGI: > 100 µM
[42]
  GI50: > 100 µM
  TGI: > 100 µM
[12]
  GI50: 25 µM
  TGI: > 100 µM
[13]
  GI50: > 100 µM
  TGI: > 100 µM
[43]
  GI50: > 100 µM
  TGI: > 100 µM
[14]
  GI50: > 100 µM
  TGI: > 100 µM
[15]
  GI50: > 100 µM
  TGI: > 100 µM
[44]
  GI50: > 100 µM
  TGI: > 100 µM
[59]
  GI50: > 100 µM
  TGI: > 100 µM
[16]
  GI50: > 100 µM
  TGI: > 100 µM
[17]
  GI50: > 100 µM
  TGI: > 100 µM
[45]
  GI50: > 100 µM
  TGI: > 100 µM
[46]
  GI50: > 100 µM
  TGI: > 100 µM
[18]
  GI50: > 100 µM
  TGI: > 100 µM
[48]
  GI50: > 100 µM
  TGI: > 100 µM
[49]
  GI50: > 100 µM
  TGI: > 100 µM
[50]
  GI50: > 100 µM
  TGI: > 100 µM
[51]
  GI50: > 100 µM
  TGI: > 100 µM
[19]
  GI50: 19.5 µM
  TGI: 74.4 µM
[20]
  GI50: > 100 µM
  TGI: > 100 µM
[21]
  GI50: > 100 µM
  TGI: > 100 µM
[22]
  GI50: > 100 µM
  TGI: > 100 µM
[23]
  GI50: > 100 µM
  TGI: > 100 µM
[52]
  GI50: > 100 µM
  TGI: > 100 µM
[53]
  GI50: > 100 µM
  TGI: > 100 µM
[24]
  GI50: > 100 µM
  TGI: > 100 µM
[54]
  GI50: > 100 µM
  TGI: > 100 µM
[55]
  GI50: > 100 µM
  TGI: > 100 µM
[25]
  GI50: > 100 µM
  TGI: > 100 µM
[26]
  GI50: 33.6 µM
  TGI: > 100 µM
[56]
  GI50: > 100 µM
  TGI: > 100 µM
[27]
  GI50: > 100 µM
  TGI: > 100 µM
[28]
  GI50: > 100 µM
  TGI: > 100 µM
[29]
  GI50: > 100 µM
  TGI: > 100 µM
[60]
  GI50: > 100 µM
  TGI: > 100 µM
[57]
  GI50: > 100 µM
  TGI: > 100 µM
